Test results as given in ChEMBL document CHEMBL5346964, “Discovery of LNP1892: A Precision Calcimimetic for the Treatment of Secondary Hyperparathyroidism” (J Med Chem, 2023).

Assays:
[1] = Cmax in human at 25 mg/kg, po administered as multiple dose on day 8; assay type: ADME, organism-based; parameters: dose 25 mg/kg, route po; settings: in vivo
[2] = Ratio of drug concentration in brain to plasma in Sprague-Dawley rat at 10 mg/kg, po measured upto 24 hrs by LC-MS/MS analysis; assay type: ADME, organism-based; settings: read-out: BPR
[3] = AUC(0 to 24 hrs) in Sprague-Dawley rat at 300 mg/kg; assay type: ADME, organism-based; parameters: dose 300 mg/kg; settings: in vivo
[4] = Chemical stability of the compound at pH 9 measured after 0.5 to 4 hrs; assay type: physicochemical; settings: buffer, time 0.5-4 hrs
[5] = Tmax in Sprague-Dawley rat at 30 mg/kg; assay type: ADME, organism-based; settings: in vivo
[6] = Cmax in Sprague-Dawley rat at 30 mg/kg; assay type: ADME, organism-based; parameters: dose 30 mg/kg; settings: in vivo
[7] = Cmax in cynomolgus monkey at 5 mg/kg, po measured upto 24 hrs by LC/MS-MS analysis; assay type: ADME, organism-based, Macaca fascicularis; parameters: time < 24 hrs, dose 5 mg/kg, route po; settings: in vivo
[8] = Tmax in Sprague-Dawley rat at 10 mg/kg, po administered as suspension measured upto 24 hrs by LC-MS/MS analysis; assay type: ADME, organism-based; settings: in vivo
[9] = Cmax in rat at 50 mg/kg per day, po via gavage administered for 2 weeks; assay type: ADME, organism-based; parameters: dose 50 mg/kg, time 2 weeks, route po; settings: in vivo
[10] = Drug excretion in BALB/c mouse assessed as drug recovery in feces at 10 mg/kg, po; assay type: ADME, organism-based; settings: faeces, read-out: Drug recovery
Rattus norvegicus [11] = assay: Acute effect on parathyroid hormone in overnight fasted adenine diet-induced chronic kidney disease Wistar rat model assessed as reduction in plasma PTH level at 3 mg/kg, po measured after 4 hrs of post treatment by sandwich ELISA analysis; assay type: functional; parameters: scale not given: the % may be the effect or the level left
[12] = Stability in rat plasma measured up to 4 hrs by LC-MS/MS method; assay type: ADME, cell-free; settings: read-out: Stability
[13] = Tmax in Sprague-Dawley rat at 1 mg/kg, iv measured upto 24 hrs by LC-MS/MS analysis; assay type: ADME, organism-based; settings: in vivo
[14] = Plasma clearance in Sprague-Dawley rat at 1 mg/kg, iv measured upto 24 hrs by LC/MS-MS analysis; assay type: ADME, organism-based
[15] = Oral bioavailability in Sprague-Dawley rat at 10 mg/kg measured upto 24 hrs by LC/MS-MS analysis; assay type: ADME, organism-based; settings: in vivo
Rattus norvegicus [16] = assay: Acute effect on parathyroid hormone in overnight fasted adenine diet-induced chronic kidney disease Wistar rat model assessed as reduction in plasma PTH level at 3 mg/kg, po measured after 2 hrs of post treatment by sandwich ELISA analysis; assay type: functional; parameters: scale not given: the % may be the effect or the level left
CYP2C9 = CYP2C9 (Homo sapiens, UniProt P11712); assay: Inhibition of CYP2C9 in human liver microsomes at 10 uM preincubated for 5 mins followed by NADPH addition by LC-MS/MS analysis relative to control; assay type: ADME, Microsome
Sequence of CYP2C9 (P11712 whole entry): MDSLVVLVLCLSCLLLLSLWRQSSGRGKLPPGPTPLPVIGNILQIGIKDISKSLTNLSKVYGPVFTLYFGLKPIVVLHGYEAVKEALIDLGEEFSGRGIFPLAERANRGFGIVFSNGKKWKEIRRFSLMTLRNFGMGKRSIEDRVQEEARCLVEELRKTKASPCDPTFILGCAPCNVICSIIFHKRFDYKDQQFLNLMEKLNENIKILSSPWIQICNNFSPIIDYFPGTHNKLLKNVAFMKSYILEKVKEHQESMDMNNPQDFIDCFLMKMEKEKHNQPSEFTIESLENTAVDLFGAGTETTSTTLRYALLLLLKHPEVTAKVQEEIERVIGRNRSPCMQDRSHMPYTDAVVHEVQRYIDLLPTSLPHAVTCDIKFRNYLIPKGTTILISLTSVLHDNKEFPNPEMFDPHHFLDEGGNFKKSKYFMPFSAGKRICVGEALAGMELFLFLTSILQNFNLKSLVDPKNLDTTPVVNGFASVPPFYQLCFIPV

CYP2D6 = CYP2D6 (Homo sapiens, UniProt P10635); assay: Inhibition of CYP2D6 in human liver microsomes at 10 uM preincubated for 5 mins followed by NADPH addition by LC-MS/MS analysis relative to control; assay type: ADME, Microsome
Sequence of CYP2D6 (P10635 whole entry): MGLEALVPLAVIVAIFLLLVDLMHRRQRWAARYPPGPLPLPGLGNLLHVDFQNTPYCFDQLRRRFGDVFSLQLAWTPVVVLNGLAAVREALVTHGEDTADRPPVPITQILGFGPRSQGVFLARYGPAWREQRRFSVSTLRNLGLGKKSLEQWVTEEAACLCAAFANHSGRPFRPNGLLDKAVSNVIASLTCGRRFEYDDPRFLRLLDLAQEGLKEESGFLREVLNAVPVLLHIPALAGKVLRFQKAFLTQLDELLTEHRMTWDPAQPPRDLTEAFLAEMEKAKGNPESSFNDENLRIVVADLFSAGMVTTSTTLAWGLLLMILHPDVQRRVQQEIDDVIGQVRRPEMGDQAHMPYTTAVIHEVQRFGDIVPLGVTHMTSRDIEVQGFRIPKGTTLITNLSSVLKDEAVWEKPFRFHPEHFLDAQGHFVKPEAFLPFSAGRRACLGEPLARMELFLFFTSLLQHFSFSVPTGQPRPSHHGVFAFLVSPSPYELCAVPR

[17] = Metabolic stability in rat liver S9 fraction measured upto 60 mins by LC-MS/MS method; assay type: ADME, subcellular; settings: read-out: Stability
[18] = Tmax in Sprague-Dawley rat at 300 mg/kg; assay type: ADME, organism-based; settings: in vivo
[19] = Tmax in Sprague-Dawley rat at 10 mg/kg, po administered as solution measured upto 24 hrs by LC-MS/MS analysis; assay type: ADME, organism-based; settings: in vivo
[20] = target: T1, 5-hydroxytryptamine receptor 1A (Homo sapiens) (UniProt P08908); assay: Inhibition of human recombinant 5-HT1A receptor at 10 uM relative to control
T1 sequence (whole entry): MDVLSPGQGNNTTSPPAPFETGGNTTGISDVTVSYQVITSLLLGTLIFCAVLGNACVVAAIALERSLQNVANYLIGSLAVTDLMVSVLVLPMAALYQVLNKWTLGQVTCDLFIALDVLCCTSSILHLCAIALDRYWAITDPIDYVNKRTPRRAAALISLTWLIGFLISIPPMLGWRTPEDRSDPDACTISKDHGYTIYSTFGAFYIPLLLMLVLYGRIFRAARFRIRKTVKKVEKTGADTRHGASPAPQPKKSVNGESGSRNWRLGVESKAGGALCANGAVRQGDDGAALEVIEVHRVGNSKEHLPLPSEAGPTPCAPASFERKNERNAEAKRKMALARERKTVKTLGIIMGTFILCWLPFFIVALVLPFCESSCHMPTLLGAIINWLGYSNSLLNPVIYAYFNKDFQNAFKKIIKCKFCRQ

[21] = Effect on parathyroid hormone in overnight fasted Sprague-Dawley rat assessed as reduction in plasma PTH level at 3 mg/kg, po measured after 0.5 hrs of post treatment by sandwich ELISA analysis; assay type: functional; parameters: scale not given: the % may be the effect or the level left
[22] = AUC(0 to t) in human at 25 mg/kg, po administered as multiple dose on day 8; assay type: ADME, organism-based; parameters: dose 25 mg/kg, route po; settings: in vivo
[23] = Ratio of drug concentration in blood to plasma in rat; assay type: ADME, cell-free
[24] = target: T2, Adenosine receptor A1 (Homo sapiens) (UniProt P30542); assay: Inhibition of human recombinant A1 receptor at 10 uM relative to control
T2 sequence (whole entry): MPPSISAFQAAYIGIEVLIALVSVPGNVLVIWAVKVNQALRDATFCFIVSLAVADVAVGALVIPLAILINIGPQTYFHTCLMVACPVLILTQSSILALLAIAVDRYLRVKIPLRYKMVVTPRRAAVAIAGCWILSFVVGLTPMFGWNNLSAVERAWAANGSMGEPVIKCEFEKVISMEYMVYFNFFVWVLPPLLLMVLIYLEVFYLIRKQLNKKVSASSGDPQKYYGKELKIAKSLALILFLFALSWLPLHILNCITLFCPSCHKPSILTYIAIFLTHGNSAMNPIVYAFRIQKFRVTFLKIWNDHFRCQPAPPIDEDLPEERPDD

[25] = AUC(0 to t) in human at 25 mg/kg, po administered as single dose; assay type: ADME, organism-based; parameters: dose 25 mg/kg, route po; settings: in vivo

Work on `Cc1ccc([C@@H]2C[C@H](CN[C@H](C)c3cccc4ccccc34)Oc3ccccc32)cc1C(=O)O.Cl` yielded a Cmax [1] of 0.463 µg/mL, a Kp at 24 h [2] of 0.2 and an AUC(0-t) [3] of 1020 µM·h. For the same compound, the Stability [4] was “Stable”, the Tmax [5] was 30 min and the Cmax [6] was 24 µM. For the same compound, the Cmax [7] was 0.4 µM, the Tmax [8] was 60 min and the Cmax [9] was 7.17 µg/mL. The dose excreted [10] was 23%, the Activity (Rattus norvegicus [11]) was 89% and the remaining at 4 h [12] was > 80%. The Tmax [13] was 4.8 min, the clearance [14] was 0.24 L/h/kg and the bioavailability [15] was 99%. It also gave an Activity (Rattus norvegicus [16]) of 96%, an inhibition at 10 µM (CYP2C9) of 0% and an inhibition at 10 µM (CYP2D6) of 0%. The remaining at 1 h [17] was > 80%, the Tmax [18] was 60 min and the Tmax [19] was 36 min. The inhibition [20] was > 50%, the Activity [21] was 100% and the AUC(0-t) [22] was 5.09 µg·h/mL. For the same compound, the blood plasma ratio [23] was 0.64, the inhibition [24] was > 50% and the AUC(0-t) [25] was 2.93 µg·h/mL.
